Where two headings read alike, the source gives them in different places.

This is an account of results in patent US12110305B2, “Prodrugs of phosphonamide nucleotide analogues and their pharmaceutical use” (priority 2020, dated 2024).

One data set deals with HIV-1 (IIIB). Briefly: Antiviral (HIV) assay in MT-4 cells. It is filed as cell-based. Conditions: HIV-1 IIIB in MT-4 cells, 5 days incubation, Cell Titer Glo, average of at least two independent experiments. The method in brief:
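MT-4 cells, infected with HIV-1 IIIB (1:250 dilution of concentrated stock) or mock-infected, were exposed to 1:3 serially diluted compounds in RPMI with 10% FBS. After 5 days at 37° C., CellTiter-Glo luminescence was read. EC50 = concentration causing […], from sigmoidal dose-response fits.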
A general note: In ATP-based viability assays light output follows the ATP content of the culture.

For another data set, the system named is MT-4 cells. Briefly: Cytotoxicity assay in MT-4 cells. Format: cell-based, human. Conditions: uninfected MT-4 cells, 5 days; average of at least two independent experiments; read-out: MT4 CC50. Here is the method:
Compounds were tested in a high-throughput 384-well assay format for their ability to inhibit the replication of HIV-1 (IIIB) in MT-4 cells. Compounds were serially diluted (1:3) in DMSO on 384-well polypropylene plates and further diluted 200-fold into complete RPMI media (10% FBS, 1% P/S) using the Biotek Micro Flow and Labcyte ECHO acoustic dispenser. Each plate contained up to 8 test compounds, with negative (no drug) and positive (5 μM AZT) controls. MT-4 cells were pre-treated with 10 μL of either RPMI (mock-infected) or a fresh 1:250 dilution of HIV-1 IIIB concentrated virus stock. Infected and uninfected MT-4 cells were further diluted in complete RPMI media and added to each plate using a Micro Flow dispenser. After 5 days incubation in a humidified and temperature-controlled incubator (37° C.), Cell Titer Glo (Promega) was added to the assay plates and chemiluminescence read using an Envision plate-reader. EC50 values were defined as the compound concentration that causes a 50% decrease in luminescence signal and were calculated using a sigmoidal dose-response model to generate curve fits and are shown in Table 1.
Example 105: Cytotoxicity Assay in MT-4 Cells
Assays were performed as described in Example 104 except uninfected MT-4 cells were added to each well containing test compound. In addition, 10 μM puromycin was added to the last column of each assay plate to assess a base level of cytotoxicity.

The test system of a further data set is PBMCs. Briefly: TFV-DP formation in peripheral blood mononuclear cells (PBMCs). Format: in vitro ADME, human. Conditions: activated PBMCs, 1 μM compound, 50% serum, 2 hrs at 37° C.; intracellular volume 0.2 pL/cell; average of at least two independent experiments. The procedure: Example 109: TFV-DP Formation in Peripheral Blood Mononuclear Cells (PBMCs)
Compounds were tested in a 96-well assay format for the level of TFV-DP loading in PBMCs in the presence of human serum. PBMCs were activated with 100 units/mL recombinant human […] and 2 μg/mL phytohaemagglutinin (PHA) for 36 hrs. After activation, PBMCs (2 million) were incubated with compounds (1 μM) and cell culture media with 50% serum in a 96 well plate for 2 hrs at 37° C. Cells were transferred to a 96 well deep block plate and spun down. Liquid was removed, and cells were washed 2× with 1 mL of 0.9% saline with spin downs between washes. After a final wash and liquid removal, 500 μL of MeOH+200 nM Cl-ATP+200 nM [adenine-^13C5]-tenofovir diphosphate (tetra ammonium salt) was added and thoroughly mixed with the cells. The plate was then spun down and 450 μL of sample was transferred to a new 96 well plate. Supernatants were then evaporated, reconstituted in 80 μl of 1 mM ammonium phosphate and thoroughly vortexed. Blank samples were pooled for serial dilution to construct calibration standards for TFV, TFV-DP and TFV-TP in pmol/million cells. Samples were then transferred to a short-well 96 well plate, centrifuged and injected on an LC-MS/MS for quantification. Values were reported in μM units using an intracellular volume of 0.2 pL/cell.

The subject of a further data set is PHHs. Put plainly: TFV-DP formation in primary human hepatocytes (PHHs). As to conditions: 1 μM compound, 1 hour at 37° C., intracellular volume 3 pL/cell, average of at least two independent experiments. Format: in vitro ADME. The procedure:
Example 110: TFV-DP Formation in Primary Human Hepatocytes (PHHs)
Compounds were tested in a 24-well assay format for the level of TFV-DP formation in PHHs. Cells were seeded (4.0×10^5 cells/well) in collagen coated plates and incubated at 37° C. After 4-6 hours the liquid was removed, 500 μl of new media (2% FBS, 1.5% DMSO) was added, and the cells were incubated at 37° C. overnight. The media is then replaced (2% FBS, 1.0% DMSO), compounds (1 μM) were added and the cells were incubated at 37° C. in the presence of compounds for 1 hour. Media was then removed and cells were washed 2× with 500 μl of 0.9% saline. After a final wash and liquid removal, 500 μL of MeOH+200 nM Cl-ATP+200 nM [adenine-^13C5]-tenofovir diphosphate (tetra ammonium salt) was added and cells were incubated at −80° C. for 30 minutes. The cells were kept on water ice while the MeOH/standard supernatant is pipetted up and down several times and then transferred to a 96 deep-well plate. Supernatants were then evaporated, samples were reconstituted in 80 μl of 1 mM ammonium phosphate and then thoroughly vortexed. Blank samples were pooled for serial dilution to construct calibration standards for TFV, TFV-DP and TFV-TP in pmol/million cells. Samples are then transferred to a short-well 96 well plate, centrifuged and injected on an LC-MS/MS for quantification. […]

The mark [1] stands for this setting: Human immunodeficiency virus 1, MT4, 120 h.

One may read the EC50 as the concentration that produces a half-maximal response. What is called CC50 is the concentration giving 50% cytotoxicity. As for `C[C@H](Cn1cnc2c(N)ncnc21)OCP(=O)(NC(C)(C)C(=O)OCC1CCC(C)(C)CC1)NC(C)(C)C(=O)OCC1CCC(C)(C)CC1` [Example 13, Bis((4,4-dimethylcyclohexyl)methyl) 2,2′-(((((1-(6-amino-9H-purin-9-yl)propan-2-yl)oxy)methyl)phosphoryl)bis(azanediyl))(R)-bis(2-methylpropanoate)], the concentration for a half-maximal effect (EC50) with HIV-1 (IIIB) (read-out: MT4 HIV EC50) was 0.016 µM. In addition, the CC50 with MT-4 cells worked out at 5.47 µM. Moreover, in the data set on PBMCs, the “Average PBMC TFV-DP” value was found to be 2.6 µM.
As for `CCCCCCOC(=O)C(C)(C)NP(=O)(CO[C@H](C)Cn1cnc2c(NC(=O)CC(C)(C)CC(=O)OCc3oc(=O)oc3C)ncnc21)NC(C)(C)C(=O)OCCCCCC` [Example 102, Dihexyl 2,2′-(((((1-(6-(3,3-dimethyl-5-((5-methyl-2-oxo-1,3-dioxol-4-yl)methoxy)-5-oxopentanamido)-9H-purin-9-yl)propan-2-yl)oxy)methyl)phosphoryl)bis(azanediyl))(R)-bis(2-methylpropanoate)], the EC50 in the data set on HIV-1 (IIIB) (setting [1]) is over 0.5 µM. For the same compound, in the data set on PBMCs, the “Average PBMC TFV-DP (μM)” value was “BLQ”.
Consider `C[C@H](Cn1cnc2c(N)ncnc21)OCP(=O)(NC(C)(C)C(=O)OCCc1ccccc1)NC(C)(C)C(=O)OCCc1ccccc1` [Example 103, Diphenethyl 2,2′-(((((1-(6-amino-9H-purin-9-yl)propan-2-yl)oxy)methyl)phosphoryl)bis(azanediyl))(R)-bis(2-methylpropanoate)], for which the EC50 in the data set with HIV-1 (IIIB) (read-out: MT4 HIV EC50) was over 0.5 µM. Moreover, in the data set with MT-4 cells, the CC50 is over 42.5 µM. Also, the “Average PBMC TFV-DP” value in the data set with PBMCs was determined as 0.4 µM.
For `CCCCCCOC(=O)C(C)(C)NP(=O)(CO[C@H](C)Cn1cnc2c(NC(=O)CC(C)(C)c3c(C)cc(C)cc3OC(C)=O)ncnc21)NC(C)(C)C(=O)OCCCCCC` [Example 100, Dihexyl 2,2′-(((((1-(6-(3-(2-acetoxy-4,6-dimethylphenyl)-3-methylbutanamido)-9H-purin-9-yl)propan-2-yl)oxy)methyl)phosphoryl)bis(azanediyl))(R)-bis(2-methylpropanoate)], the half-maximal effective concentration (EC50) in the data set with HIV-1 (IIIB) (read-out: MT4 HIV EC50) is 0.022 µM. In addition, the “Average PHH TFV-DP” value in the data set with PHHs is 4.73 µM. In addition, in the data set with PBMCs, the “Average PBMC TFV-DP” value is 1.9 µM.
Take `CCCCCCOC(=O)C(C)(C)NP(=O)(CO[C@H](C)Cn1cnc2c(NC(=O)CCCSC(C)=O)ncnc21)NC(C)(C)C(=O)OCCCCCC` [Example 97, Dihexyl 2,2′-(((((1-(6-(4-(acetylthio)butanamido)-9H-purin-9-yl)propan-2-yl)oxy)methyl)phosphoryl)bis(azanediyl))(R)-bis(2-methylpropanoate)]: in the data set with HIV-1 (IIIB) (read-out: MT4 HIV EC50), the EC50 amounted to 0.013 µM. Also, the CC50 in the data set with MT-4 cells was found to be 10.7 µM. Besides, in the data set with PHHs, the “Average PHH TFV-DP” value turned out to be 1.60 µM. Further, the “Average PBMC TFV-DP” value in the data set with PBMCs is 1.4 µM.
`C[C@H](Cn1cnc2c(N)ncnc21)OCP(=O)(NC(C)(C)C(=O)O[C@H]1CC[C@H](C(C)(C)C)CC1)NC(C)(C)C(=O)O[C@H]1CC[C@H](C(C)(C)C)CC1` [Example 12, Bis(trans-4-(tert-butyl)cyclohexyl) 2,2′-((((((R)-1-(6-amino-9H-purin-9-yl)propan-2-yl)oxy)methyl)phosphoryl)bis(azanediyl))bis(2-methylpropanoate)] yielded an EC50 in the data set on HIV-1 (IIIB) (setting [1]) of 0.172 µM. The “Average PBMC TFV-DP (μM)” value with PBMCs is “BLQ”.
Consider `CCCCCCOC(=O)C(C)(C)NP(=O)(CO[C@H](C)Cn1cnc2c(=N)n(Cc3oc(=O)oc3C)cnc21)NC(C)(C)C(=O)OCCCCCC` [Example 83, Dihexyl 2,2′-(((((1-(6-imino-1-((5-methyl-2-oxo-1,3-dioxol-4-yl)methyl)-1,6-dihydro-9H-purin-9-yl)propan-2-yl)oxy)methyl)phosphoryl)bis(azanediyl))(R)-bis(2-methylpropanoate)], for which, in the data set with HIV-1 (IIIB) (setting [1]), it took 0.006 µM to reach a half-maximal effect (EC50).
On the same count and under the same terms, next, `CCCCCCOC(=O)C(C)(C)NP(=O)(CO[C@H](C)Cn1cnc2c(NC(=O)OCC(=O)OCc3oc(=O)oc3C)ncnc21)NC(C)(C)C(=O)OCCCCCC` [Example 95, Dihexyl 2,2′-(((((1-(6-(((2-((5-methyl-2-oxo-1,3-dioxol-4-yl)methoxy)-2-oxoethoxy)carbonyl)amino)-9H-purin-9-yl)propan-2-yl)oxy)methyl)phosphoryl)bis(azanediyl))(R)-bis(2-methylpropanoate)]: 0.027 µM; `C[C@H](Cn1cnc2c(N)ncnc21)OCP(=O)(NC(C)(C)C(=O)OCC12CCC(CC1)CC2)NC(C)(C)C(=O)OCC12CCC(CC1)CC2` [Example 48, Bis(bicyclo[2.2.2]octan-1-ylmethyl) 2,2′-(((((1-(6-amino-9H-purin-9-yl)propan-2-yl)oxy)methyl)phosphoryl)bis(azanediyl))(R)-bis(2-methylpropanoate)]: 0.006 µM.
Same read-out and setting: next, `C[C@H](Cn1cnc2c(N)ncnc21)OCP(=O)(NC(C)(C)C(=O)O[C@H]1C[C@H](C(C)(C)C)C1)NC(C)(C)C(=O)O[C@H]1C[C@H](C(C)(C)C)C1` [Example 52, Bis((1R,3R)-3-(tert-butyl)cyclobutyl) 2,2′-((((((R)-1-(6-amino-9H-purin-9-yl)propan-2-yl)oxy)methyl)phosphoryl)bis(azanediyl))bis(2-methylpropanoate)]: 0.008 µM.
As for `C[C@H](Cn1cnc2c(N)ncnc21)OCP(=O)(NC(C)(C)C(=O)OC1CCOCC1)NC(C)(C)C(=O)OC1CCOCC1` [Example 24, Bis(tetrahydro-2H-pyran-4-yl) 2,2′-(((((1-(6-amino-9H-purin-9-yl)propan-2-yl)oxy)methyl)phosphoryl)bis(azanediyl))(R)-bis(2-methylpropanoate)], the EC50 in the data set with HIV-1 (IIIB) (setting [1]) was over 0.5 µM. In addition, in the data set on PBMCs, the “Average PBMC TFV-DP (μM)” value is “BLQ”.
In the data set with HIV-1 (IIIB) (setting [1]), `CCCCCCOC(=O)C(C)(C)NP(=O)(CO[C@H](C)Cn1cnc2c(NC(=O)OCC(C)(C)C(=O)OCc3oc(=O)oc3C)ncnc21)NC(C)(C)C(=O)OCCCCCC` [Example 98, Dihexyl 2,2′-(((((1-(6-(((2,2-dimethyl-3-((5-methyl-2-oxo-1,3-dioxol-4-yl)methoxy)-3-oxopropoxy)carbonyl)amino)-9H-purin-9-yl)propan-2-yl)oxy)methyl)phosphoryl)bis(azanediyl))(R)-bis(2-methylpropanoate)] had an EC50 of 0.213 µM.
